Assay results reported in patent EP3064205A1, “Therapeutic use of isomeric forms of 2-(4-chlorophenyl)quinolin-4-yl)(piperidin-2-yl)methanol” (Glionova AB, priority 2015, dated 2016).
pIC50: −log10 of the molar value. “Also recorded” adds a separate entry of the source. Read-outs that look alike come from different tables or passages of the source. Values belong to the compound of their own block, whether it stands above or below them.

What was measured:
[1] = Pharmacokinetic evaluation in mice (plasma and brain); type: in vivo, male NMRI mice; details: for Kp / Tmax / Cmax: male, NMRI, mouse; for Kp: brain/plasma, single oral administration of 20 mg/kg
Method: Compounds S1 and S2 were formulated at 0.4 mg/mL in 7.5% NMP, 10% Kolliphor in 0.9% NaCl (for i.v. administration) and at 2.0 mg/mL in 0.1% Tween 80, 0.5% Na-CMC in water (for p.o. administration).
The pharmacokinetic properties of S1 and S2 were determined in male NMRI mice (Charles River, Germany) following single intravenous (i.v., tail vein, 2 mg/kg) or per oral (p.o, gavage, 20 mg/kg). Light isoflurane anaesthesia was used at i.v. administration, no anaesthesia was used at p.o. administration. Blood samples were kept on ice after sampling and centrigued at +4 °C, 1800 x g for 5 minutes to prepare plasma. Blood and homogenized brain samples were taken from animals at the following nominal time points: 15, 30, and 60 minutes, and 2, 4, 6, 8, 24, 48, 72 and 144 hours after dosing (n=3 samples/time-point). Blood sampling (400-600 microliters) was performed by orbital plexus collection under isoflurane anaesthesia into EDTA plasma tubes (BD Microtainer K2EDTA). Bioanalytical quantification of S1 and S2 was analysed in plasma and brain samples by a UPLC-MS/MS. Pharmacokinetics were calculated by non-compartmental analysis (NCA) from composite (mean) profiles using Phoenix WinNonlin Professional (v 6.3). Nominal sampling times and dose levels have been used for the NCA calculations. All animals dosed with S1 and S2 were systemically exposed to the test compound. The plasma and brain concentrations were detectable and analysed until 144 h.
Brain sampling was performed after the end of blood sampling at the specified time points following euthanization and skull extraction. Brains were weighed and placed in test tubes and placed on wet ice. 4 mL PBS (pH 7.4) per 1 g of brain tissue was added to the test tube and brains were then homogenized using an Ultra-Turrax T25 homogenisator (Setting 2, 9500 rpm, 10s). The homogenates were frozen at -20° C immediately after homogenization.

[2] = system: glioblastoma cell line U3013; experiment: ATP viability assay (CellTiter-Glo); type: cell-based, human; details: U3013, dose response, CellTiterGlo ATP quantification
Method: (§1) The human melanoma cell line SK-MEL-28 is a well established reference cell line in melanoma research (Goodfellow M, et al. J. Natl. Cancer Inst. 59: 221-226, 1977). Cells were cultured in MEM supplemented with 10% FCS. Glioblastoma cell line (U3013) was generated directly from patient-derived tumors (Kitambi et al. Cell. 2014: 157(2):313-28) and grown in serum-free media supplemented with N2, B27, EGF, and FGF-2 (20 ng/ml) using previously described methodology (Pollard et al., 2009).
Culture plates were pre-coated with laminin (Sigma) for 3 hr at 10 ug/ml prior to use and confluent cells were split 1:3 to 1:5 using TrypLE Express (Invitrogen).
(§2) Viability assay was conducted in 96 well microtiter plates seeded with 3000 cells. Cell viability was measured using CellTiter-Glo assay (Promega), according to the manufacturer's instructions. Luminescence was measured using Victor3 FA (Perkin Elmer) microtiter plate reader. Total luminescence was normalized relative to negative control and curve fitting performed using GraphPad Prism (v6.02) software. IC50 was determined using Cell Viability assay, and data was illustrated using GraphPad Prism (version 6.02)

SK-Mel-28 = experiment: ATP viability assay (CellTiter-Glo); type: cell-based; details: Homo sapiens
Method: as §1, §2

SK-Mel-28 cells [3] = experiment: Vacuolization, bright field microscopy; type: cell-based, human; details: SK-Mel-28, 5µM or 10µM, 18h
Method: as §1
(§3) Cells were plated on glass slides and were treated with compound at the indicated concentrations for 18h before imaging. Digital images were taken using a Veleta camera (Olympus Soft Imaging Solutions).

Panc-1 cells [4] = experiment: Vacuolization, bright field microscopy; type: cell-based, human; details: Panc-1, 5µM or 10µM, 18h
Source text: The following well-characterized human pancreatic ductal adenocarcinoma cell lines (ATCC) were used: HPAF II, BxPC-3, MIA-PaCa2 and Panc-1. These cell lines were generated from patient-derived tumors and are widely used model system to study pancreatic cancer (HPAF II: Kim YW, et al. Pancreas 4: 353-362, 1989; BxPC-3: Tan MH, et al. Cancer Invest. 4: 15-23, 1986; MIA-PaCa2: Yunis AA, et al. Int. J. Cancer 19: 128-135, 1977; Pacn-1: Lieber M, et al. Int. J. Cancer 15: 741-747, 1975).
as §3

KPC cells = experiment: Vacuolization, bright field microscopy; type: cell-based, mouse; details: 5µM (3.3 µM elsewhere in the source) or 10µM, 18h
Method: as §3

Panc-1 cells [5] = experiment: Long term toxicity (viability assay up to 25 days); type: cell-based, human
Method: as §2
(§4) SK-Mel-28 and Panc-1 cells were plated on 96 well plates. Three hours post-seeding, cells were treated with 10 µM, 1 µM, 0.1 µM and 0.01 µM of S2 or vehicle (DMSO). Viability assay was conducted after 24 h, 72 h, 5 days, 10 days, 15 days, 20 days and 25 days, as described above. Media was changed every two days. […] Cell viability at each concentration was quantified relative to DMSO control at any time point (each time point had its own control), and was presented as fraction of control. Each treatment and the adequate control and was performed in 3, 4 and 6 repeats. Error bars indicate standard error (SE).
as §4, with “Vacquionol-1 SR (S2)” for “S2”

SK-Mel-28 cells [6] = experiment: Long term toxicity (viability assay up to 25 days); type: cell-based, human
Method: as §2, §4
as §4, with “Vacquionol-1 SR (S2)” for “S2”

Brain AUC last ([1]; brain, i.v., 2 mg/kg): 9050 ng·h/mL | Brain Cmax ([1]; brain, i.v., 2 mg/kg): 777 ng/mL | Brain tlast ([1]; brain, i.v., 2 mg/kg): 72 h | Brain AUC last ([1]; brain, p.o., 20 mg/kg): 157000 ng·h/mL | Brain Cmax ([1]; brain, p.o., 20 mg/kg): 1490 ng/mL | Brain tlast ([1]; brain, p.o., 20 mg/kg): 144 h | Kp ([1]; po, 20 mg/kg, read-out: exposure ratio AUC(brain/plasma)): 0.9 | Kp ([1]; po, 20 mg/kg, read-out: exposure ratio Cmax(brain/plasma)): 0.7 | Tmax ([1]; iv, brain, i.v., 2 mg/kg, read-out: Brain tmax): 1 h | Cmax ([1]; iv, plasma, 2 mg/kg): 455 ng/mL | Tmax ([1]; iv, plasma, i.v., 2 mg/kg, read-out: Plasma tmax): 0.5 h | Tmax ([1]; po, brain, p.o., 20 mg/kg, read-out: Brain tmax): 6 h | Cmax ([1]; po, plasma, 20 mg/kg): 2050 ng/mL | Tmax ([1]; po, plasma, p.o., 20 mg/kg, read-out: Plasma tmax): 8 h | Plasma AUC last ([1]; plasma, i.v., 2 mg/kg): 14100 ng·h/mL | Plasma tlast ([1]; plasma, i.v., 2 mg/kg): 72 h | Plasma AUC last ([1]; plasma, p.o., 20 mg/kg): 183000 ng·h/mL | Plasma tlast ([1]; plasma, p.o., 20 mg/kg): 144 h | pIC50 (SK-Mel-28; SK-MEL-28, 24 h): 5.44 | pIC50 (SK-Mel-28; SK-MEL-28, 48 h): 5.62 | pIC50 (SK-Mel-28; SK-MEL-28, 72 h): 5.68
SMILES: O[C@@H](c1cc(-c2ccc(Cl)cc2)nc2ccccc12)[C@H]1CCCCN1 [S2, (S)-(2-(4-chlorophenyl)quinolin-4-yl)((R)-piperidin-2-yl)methanol]
in vitro cytotoxicity, comparison of isolated isomers [2]: S1 and S2 exhibit greater in vitro oncolytic potency than the corresponding S3 and S4 isomers; also recorded: S1 and S2 exhibit higher cytotoxicity on cancer cells than S3 and S4 | vacuole formation (SK-Mel-28 cells [3]): stimulate vacuole formation | vacuole formation (SK-Mel-28 cells [3]; listed as Vacquinol-1 SR (S2)): stimulates vacuole formation | vacuole formation (Panc-1 cells [4]): stimulate vacuole formation | vacuole formation (Panc-1 cells [4]; listed as Vacquinol-1 SR (S2)): stimulates vacuole formation | vacuole formation (KPC cells): stimulate vacuole formation | vacuole formation (KPC cells; listed as Vacquinol-1 SR (S2)): stimulates vacuole formation | long term toxicity (Panc-1 cells [5]; Panc-1, 10, 1, 0.1, 0.01 µM, up to 25 days): dose-dependent cytotoxic effect | long term toxicity, lower concentrations (Panc-1 cells [5]; Panc-1, long term exposure, 1µM): complete death | long term toxicity (SK-Mel-28 cells [6]; SK-Mel-28, 10, 1, 0.1, 0.01 µM, up to 25 days): dose-dependent cytotoxic effect | long term toxicity, lower concentrations (SK-Mel-28 cells [6]; SK-Mel-28, long term exposure of lower concentrations): complete death of the cells

SMILES: O[C@H](c1cc(-c2ccc(Cl)cc2)nc2ccccc12)[C@H]1CCCCN1 [S3, (R)-(2-(4-chlorophenyl)quinolin-4-yl)((R)-piperidin-2-yl)methanol]
in vitro cytotoxicity, comparison of isolated isomers [2]: S1 and S2 exhibit greater in vitro oncolytic potency than the corresponding S3 and S4 isomers; also recorded: S1 and S2 exhibit higher cytotoxicity on cancer cells than S3 and S4

SMILES: O[C@@H](c1cc(-c2ccc(Cl)cc2)nc2ccccc12)[C@@H]1CCCCN1 [S4, (S)-(2-(4-chlorophenyl)quinolin-4-yl)((S)-piperidin-2-yl)methanol]
in vitro cytotoxicity, comparison of isolated isomers [2]: S1 and S2 exhibit greater in vitro oncolytic potency than the corresponding S3 and S4 isomers; also recorded: S1 and S2 exhibit higher cytotoxicity on cancer cells than S3 and S4
